Reference: patent US11946092B2, “Method for producing 2-keto-3-deoxygluconate from 2-(acetylamino)-2-deoxy-d-gluconic acid by two enzymes” (SHANDONG UNIVERSITY, priority 2022, dated 2024)

tested on: deacetylase OngB; assay: Substrate specificity analysis of OngB (acetate production); format: biochemical, Pseudoalteromonas prydzensis ACAM 620; details: 5 μM OngB, 25 mM substrate, 10 mM Bis-Tris-HCl (pH 7.5), 25° C., 30 min; FIG. 4A
Protocol: Substrate specificity assays were performed with GlcNAc1A, GlcNAc, GlcNAc-6-P, N-acetyl-D-glutamate and N-acetyl-D-serine. Standard reaction system contained 5 μM OngB, 25 mM substrate and 10 mM Bis-Tris-HCl (pH 7.5). Reactions were conducted at 25° C. for 30 min. The production of acetate in the reaction mixture was determined with an Acetic Acid (ACS Analyser Format) Assay Kit. One unit of enzyme (U) is defined as the amount of enzyme required to release 1 μmol of acetate per minute.

OngB activity towards substrate (production of acetate) | Structure (SMILES)
high substrate specificity | CC(=O)N[C@@H](C(=O)O)[C@@H](O)[C@H](O)[C@H](O)CO [GlcNAc1A, 2-(acetylamino)-2-deoxy-D-gluconic acid]
little or no activity | CC(=O)N[C@H]1C(O)O[C@H](CO)[C@@H](O)[C@@H]1O (stereo partly drawn) [GlcNAc, N-acetyl-D-glucosamine]
little or no activity | CC(=O)N[C@@H]1[C@@H](O)[C@H](O)[C@@H](COP(=O)(O)O)O[C@@H]1O [GlcNAc-6-P]
little or no activity | CC(=O)N[C@H](CO)C(=O)O [N-acetyl-D-serine]

Structure (SMILES) | OngB activity towards substrate (production of acetate)
CC(=O)N[C@H](CCC(=O)O)C(=O)O [N-acetyl-D-glutamate] | little or no activity

tested on: deaminase OngC; assay: Substrate specificity analysis of OngC (ammonia production); format: biochemical, Pseudoalteromonas prydzensis ACAM 620; details: 0.5 μM OngC, 10 mM substrate, 10 mM Bis-Tris-HCl (pH 7.5), 25° C., 30 min; FIG. 4B
Protocol: Substrate specificity assays were performed with GlcN1A, D-glucosamine, D-galactosamine and D-mannosamine. GlcN1A was prepared by incubating 10 μM OngB with 10 mM GlcNAc1A in 10 mM Bis-Tris-HCl (pH 7.5) at 25° C. for 4 h. Standard reaction system contained 0.5 μM OngC, 10 mM substrate and 10 mM Bis-Tris-HCl (pH 7.5). Reactions were conducted at 25° C. for 30 min. The production of ammonia in the reaction mixture was determined with an AMMONIA (Rapid) ASSAY PROCEDURE. One unit of enzyme (U) is defined as the amount of enzyme required to release 1 μmol of ammonia per minute.

OngC activity towards substrate (production of ammonia) | Structure (SMILES)
little or no activity | N[C@H]1C(O)O[C@H](CO)[C@H](O)[C@@H]1O (stereo partly drawn) [D-galactosamine]
little or no activity | N[C@H]1C(O)O[C@H](CO)[C@@H](O)[C@@H]1O (stereo partly drawn) [D-glucosamine]
little or no activity | N[C@@H]1C(O)O[C@H](CO)[C@@H](O)[C@@H]1O (stereo partly drawn) [D-mannosamine]
high substrate specificity | N[C@@H](C(=O)O)[C@@H](O)[C@H](O)[C@H](O)CO [GlcN1A, 2-(amino)-2-deoxy-D-gluconic acid]
